The record followed here is US12103939B2, “Solid pharmaceutical gold-based composition” (KING FAHD UNIVERSITY OF PETROLEUM AND MINERALS, priority 2019, dated 2024).

A word on the IC25: it is the concentration at which the effect reaches the 25% level. High values mean weaker potency, low ones greater potency. The IC75 is the concentration needed for an effect of 75%.

The subject of data set [1] is MG-63 osteosarcoma cell line. In words: Cytotoxicity assay (MTT, 72 h). The format is cell-based, human. The settings on record: MG63, MTT after 72 h, mean (SD); read-out: Half-maximal inhibitory concentration (IC50). As for the experimental part:
(§1) R-ME-180 and A2780cis cells were maintained in 1 μM cisplatin. Adipose-derived stromal cells were maintained in MSCGM BulletKit medium (Lonza). All cell lines were cultured at 37° C. in a 5% CO2, fully humidified atmosphere
(§2) Cell lines were seeded in 96-well flat-bottomed microplates in 100 μL culture medium at the following densities: DU145, PC3 and MCF-7 cells (2.5×10^3 cells/well); A2780, A2780cis, ME-180, R-ME-180 and A549 cells (4.0×10^3 cells/well); and MG-63 cells (2.0×10^3 cells/well). Cells were allowed to adhere for 24 h. Then the medium was replaced with fresh medium alone or with one of the gold(III) complexes at increasing concentrations from 0 to 100 μM. The reference drugs cisplatin (0-100 μM) and doxorubicin (0-1 μM) were included as positive controls for growth inhibition. After 72 h, cell viability was assayed using the MTT assay.
(§3) See Chou T. C.; Talalay P. Quantitative analysis of dose-effect relationships: the combined effects of multiple drugs or enzyme inhibitors. […] 22, 27-55, incorporated herein by reference in its entirety. IC50 values were reported as mean (SD). For drug-resistance cell lines, fold resistance (FR) was calculated as the ratio of the IC50 of the resistant cell line to the IC50 of the parental cell line.

Data set [2] concerns PC3 prostate cancer cell line. Briefly: Cytotoxicity assay (MTT, 72 h). The format is cell-based, human. On the procedure:
as §1, §2, §3

The test system of data set [3] is cisplatin-resistant R-ME-180 clone. Briefly: Cytotoxicity assay (MTT, 72 h). The format is cell-based, human. On the procedure:
as §1, §2, §3

For data set [4], the system named is cisplatin- and doxorubicin-resistant A2780cis clone. Briefly: Cytotoxicity assay (MTT, 72 h). Type of data set: cell-based, human. On the procedure: as §1, §2, §3
Data set [5] has as its system DU145 prostate cancer cell line. In words: Cytotoxicity assay (MTT, 72 h). The format is cell-based, human. The settings on record: DU145, MTT after 72 h, mean (SD); read-out: Half-maximal inhibitory concentration (IC50). On the procedure: as §1, §2, §3
In data set [6] the test system is A549 lung cancer cell line. In words: Cytotoxicity assay (MTT, 72 h). Type of data set: cell-based, human. The settings on record: A549, MTT after 72 h, mean (SD); read-out: Half-maximal inhibitory concentration (IC50). On the procedure: as §1, §2, §3
For data set [7], the system named is MCF-7 breast cancer cell line. Briefly: Cytotoxicity assay (MTT, 72 h). Type of data set: cell-based, human. Conditions: MCF-7, MTT after 72 h, mean (SD); read-out: Half-maximal inhibitory concentration (IC50). As for the experimental part:
as §1, §2, §3

The next data set deals with caspase 3,7. In words: Caspase 3,7 activation (FLICA, flow cytometry). Type of data set: cell-based, human. The settings on record: PC3, 24 h. As for the experimental part:
For apoptosis assays, PC3 cells were treated with C6 for 24 h and then apoptosis was assayed by staining for 15 min with FITC Annexin V reagent (BD Pharmingen) and propidium iodide (PI). Apoptotic cells were detected by flow cytometry (BD FACSCanto II flow cytometer) and analyzed using BD FACSDiva v8.0.1 software (BD Biosciences). Caspase 3,7 activation was evaluated using fluorochrome-labeled inhibitors of caspases (FLICA) of the CaspaTag Caspase 3,7 In Situ Assay Kit, Fluorescein (Millipore) and evaluated by flow cytometry; data were expressed as mean fluorescence intensity.
On the technique in general: In flow cytometry, cells or beads pass a laser one at a time.

Another data set has as its system 20S proteasome. Briefly: 20S proteasome activity in lysates of treated PC3 cells. The format is cell-based, human. Conditions: PC3, 12 h. As for the experimental part: Proteasome activity (EC 3.4.25.1) was evaluated on the same cell lysates as used to assay TrxR. Proteasome activity was assayed in cytosolic extracts using the 20S Proteasome Activity Assay kit APT280 (Merck Millipore) and a computer-interfaced GeniusPlus microplate reader (Tecan).

The test system of data set [8] is PC3 cells. In words: In vitro scratch assay (cell migration). The format is cell-based, human. The settings on record: PC3, 3 h pretreatment with C6 (IC50), 36 h after scratch; control about 10%. On the procedure: Cell migration was assessed using the in vitro scratch assay. Briefly, cells were grown to confluence and then treated with C6 (IC50). After 3 h, monolayers were washed twice with PBS, scraped with a pipette tip to create a “wound” in the monolayer, and washed again. Culture medium with 2% (not 10%) FBS was added and the cells were cultured for 36 h. Wounds were photographed every 12 h using an inverted microscope (EclipseTS/100, Nikon) at magnification 4×. Migration was assessed by measuring the cell-free area (in pixels) with ImageJ tool software after 12, 24 and 36 h.

Data set [9] deals with PC3 cells. Briefly: Cellular uptake of gold(III) complexes (ICP-MS). The format is cell-based, human. Conditions: 3 μM, 2 h, ICP mass spectrometry. As for the experimental part: After treatment, monolayers were washed with ice-cold PBS four times, and the cells were detached with trypsin-EDTA and washed three times with ice-cold PBS by centrifugation. The cell pellet was solubilized in 700 μL of HNO3—HCl solution (1:3 molar ratio) for 2 h at 100° C., and then diluted with 4 mL water. Samples were analyzed for gold on an Agilent 7500 inductively coupled plasma mass spectrometer (ICP-MS). Results were expressed as ng gold/10^6 cells. The experiment was performed a total of two times and the results were expressed as mean and SD.

The subject of data set [10] is normal human adipose-derived stromal cells (ADSCs). Briefly: Growth inhibition in adipose-derived stromal cells (MTT, 72 h). Conditions: MTT after 72 h. Type of data set: cell-based. On the procedure:
Human adipose-derived stromal cells (ADSCs) were from Lonza (Verviers, Belgium). ADSCs were maintained in MSGM bullet kit (Lonza) and experiments were performed in DMEM (Cambrex Bio Science, Milan, Italy) supplemented with 10% FBS. To evaluate effects of C6, ADSCs were seeded in 96-well flat-bottomed microplates (5.0×10^3 cells in 100 μL per well) and incubated for 24 h (to allow cell adhesion) before drug testing. The medium was removed and replaced with fresh medium containing C6 at increasing concentrations (from 0.1 to 1 μM). Cells were incubated at 37° ° C. for 72 h. Each treatment was performed in triplicate. Cell growth was measured using the MTT assay.

For data set [11], the system named is PC3 cells. Briefly: Double-stranded DNA breaks (histone H2A.X phosphorylation). The format is cell-based, human. Conditions: PC3, 24 h. On the procedure:
The presence of double-stranded DNA breaks was assessed 24 h after treatment with C6 by fixing and permeabilizing cells with Fix & Perm medium A and B (Invitrogen) and staining with FITC anti-H2A.X Phospho (Ser139) Antibody (BioLegend, San Diego, USA). Stained cells were evaluated by flow cytometry.

The structures appear in SMILES notation. Several values for one entry are separate records, joined by “and”; a condition that tells them apart may be missing. Equal entries are not always repeated.

With `C[N+](C)=C1[S][Au-]2([S]1)[n+]1ccc[n+]3c1-c1[n+]2ccc[n+]1[Au-]31[S]C(=[N+](C)C)[S]1.[Cl-].[Cl-].[Cl-].[Cl-]` [C6, [Au2(BPM)(DMDTC)2]Cl4], the IC50 in [1] is 800 nM; in [2] (PC3, MTT after 72 h, mean (SD), read-out: Half-maximal inhibitory concentration (IC50)), 600 nM and 620 nM; in data set [3] (R-ME-180, MTT after 72 h, mean (SD)), 4900 nM; in data set [4] (A2780cis, MTT after 72 h, mean (SD)) it was 300 nM; in data set [5], 700 nM; in data set [6], 800 nM. The IC50 in data set [7] came out at 500 nM; in data set [10], 1400 nM. The molecule also had a concentration for an effect of 25% (IC25) in data set [2] (PC3) of 310 nM. Also, the IC75 in data set [2] (PC3) amounted to 1850 nM. Also, the “FR (R-ME-180/ME-180), fold resistance” value in [3] (IC50 R-ME-180 / IC50 ME-180) is recorded as 0.9. Also, the “FR (A2780cis/A2780), fold resistance” value in data set [4] (IC50 A2780cis / IC50 A2780) came out at 1.2. In the data set on caspase 3,7, the “caspase 3,7 activation (FLICA)” value is reported as “activated caspase 3,7”. Besides, in the data set with 20S proteasome, the 20S proteasome activity entry was “dose-dependent inhibitory effect”. Besides, the “remaining uncovered area in scratch assay” value in the data set on PC3 cells [8] was “about 40%”. Moreover, the “amount of internalized gold (cellular uptake)” value with PC3 cells [9] is “internalization even greater than that of C7”. Also, the “double-stranded DNA breaks (phosphorylation of histone H2A.X)” value in the data set with PC3 cells [11] is on record as “increase in phosphorylation of histone H2A.X”.
